Measurements reported in PubChem BioAssay AID1963975 (Molecular Pharmacology Branch, DTP, NCI, 2024).

Tested on: 624824-186-R-J2-PDC multicell spheroids, viability
Assay: Anticancer human tumor 624824-186-R-J2-PDC patient-derived colon adenocarcinoma cell line growth inhibition [PI3K]
Details: for IC50: curve of first compound; for viability, T/C: stronger effect = lower value
Outline: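 Targeted small molecules plus PI3K inhibitors, half-log dose series from Cmax (default top 10 microM), were applied to heterotypic spheroids of cancer cells with HUVEC and MSCs. Viability indicated growth inhibition.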

[1] = second compound 0.0316 µM, first compound 0.0316 µM
[2] = second compound 0.0316 µM, first compound 0.1 µM
[3] = second compound 0.0316 µM, first compound 0.316 µM
[4] = second compound 0.0316 µM, first compound 1 µM
[5] = second compound 0.1 µM, first compound 0.0316 µM
[6] = second compound 0.1 µM, first compound 0.1 µM
[7] = second compound 0.1 µM, first compound 0.316 µM
[8] = second compound 0.1 µM, first compound 1 µM
[9] = second compound 0.316 µM, first compound 0.0316 µM
[10] = second compound 0.316 µM, first compound 0.1 µM
[11] = second compound 0.316 µM, first compound 0.316 µM
[12] = second compound 0.316 µM, first compound 1 µM
[13] = second compound 1 µM, first compound 0.0316 µM
[14] = second compound 1 µM, first compound 0.1 µM
[15] = second compound 1 µM, first compound 0.316 µM
[16] = second compound 1 µM, first compound 1 µM
[17] = second compound 3.16 µM, first compound 0.0316 µM
[18] = second compound 3.16 µM, first compound 0.1 µM
[19] = second compound 3.16 µM, first compound 0.316 µM
[20] = second compound 3.16 µM, first compound 1 µM
[21] = second compound 10 µM, first compound 0.0316 µM
[22] = second compound 10 µM, first compound 0.1 µM
[23] = second compound 10 µM, first compound 0.316 µM
[24] = second compound 10 µM, first compound 1 µM
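Further: spheroids exposed to agents for 7 days before viability read.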
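Wherever viability, T/C is given: 100% = DMSO vehicle treated spheroids.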

Compound: CC(C)NCC(C(=O)N1CCN(c2ncnc3c2C(C)CC3O)CC1)c1ccc(Cl)cc1 (centres undefined) + CC(Nc1ncnc2nc[nH]c12)c1cc2cccc(Cl)c2c(=O)n1-c1ccccc1
- IC50 (second compound 0.0316 µM): > 10 µM
- IC50 (second compound 0.1 µM): > 10 µM
- IC50 (second compound 0.316 µM): > 10 µM
- IC50 (second compound 1 µM): > 10 µM
- IC50 (second compound 3.16 µM): > 10 µM
- IC50 (second compound 10 µM): > 10 µM
- viability, T/C [1]: 86.1%
- viability, T/C [2]: 87.8%
- viability, T/C [3]: 75.5%
- viability, T/C [4]: 89.6%
- viability, T/C (second compound 0.0316 µM, first compound 3.16 µM): 88.4%
- viability, T/C (second compound 0.0316 µM, first compound 10 µM): 89.4%
- viability, T/C [5]: 111%
- viability, T/C [6]: 84.9%
- viability, T/C [7]: 88.4%
- viability, T/C [8]: 82.2%
- viability, T/C (second compound 0.1 µM, first compound 3.16 µM): 85%
- viability, T/C (second compound 0.1 µM, first compound 10 µM): 86.6%
- viability, T/C [9]: 112%
- viability, T/C [10]: 113%
- viability, T/C [11]: 71.3%
- viability, T/C [12]: 95.6%
- viability, T/C (second compound 0.316 µM, first compound 3.16 µM): 81%
- viability, T/C (second compound 0.316 µM, first compound 10 µM): 74.7%
- viability, T/C [13]: 106%
- viability, T/C [14]: 96.2%
- viability, T/C [15]: 99.4%
- viability, T/C [16]: 85%
- viability, T/C (second compound 1 µM, first compound 3.16 µM): 90.8%
- viability, T/C (second compound 1 µM, first compound 10 µM): 89.3%
- viability, T/C [17]: 85.6%
- viability, T/C [18]: 104%
- viability, T/C [19]: 100%
- viability, T/C [20]: 82.1%
- viability, T/C (second compound 3.16 µM, first compound 3.16 µM): 88.1%
- viability, T/C (second compound 3.16 µM, first compound 10 µM): 87.2%
- viability, T/C [21]: 98.7%
- viability, T/C [22]: 108%
- viability, T/C [23]: 103%
- viability, T/C [24]: 88.1%
- viability, T/C (second compound 10 µM, first compound 3.16 µM): 75.5%
- viability, T/C (second compound 10 µM, first compound 10 µM): 71.4%

Compound: CCN1CCN(Cc2ccc(Nc3ncc(F)c(-c4cc(F)c5nc(C)n(C(C)C)c5c4)n3)nc2)CC1 + CC(Nc1ncnc2nc[nH]c12)c1cc2cccc(Cl)c2c(=O)n1-c1ccccc1
- IC50 (second compound 0.0316 µM): > 1 µM
- IC50 (second compound 0.1 µM): > 1 µM
- IC50 (second compound 0.316 µM): > 1 µM
- IC50 (second compound 1 µM): > 1 µM
- IC50 (second compound 3.16 µM): > 1 µM
- IC50 (second compound 10 µM): > 1 µM
- viability, T/C (second compound 0.0316 µM, first compound 0.00316 µM): 91.4%
- viability, T/C (second compound 0.0316 µM, first compound 0.01 µM): 125%
- viability, T/C [1]: 77.5%
- viability, T/C [2]: 83.9%
- viability, T/C [3]: 85.3%
- viability, T/C [4]: 101%
- viability, T/C (second compound 0.1 µM, first compound 0.00316 µM): 121%
- viability, T/C (second compound 0.1 µM, first compound 0.01 µM): 100%
- viability, T/C [5]: 100%
- viability, T/C [6]: 102%
- viability, T/C [7]: 88.1%
- viability, T/C [8]: 115%
- viability, T/C (second compound 0.316 µM, first compound 0.00316 µM): 99.8%
- viability, T/C (second compound 0.316 µM, first compound 0.01 µM): 96.2%
- viability, T/C [9]: 95.5%
- viability, T/C [10]: 66.9%
- viability, T/C [11]: 92%
- viability, T/C [12]: 112%
- viability, T/C (second compound 1 µM, first compound 0.00316 µM): 104%
- viability, T/C (second compound 1 µM, first compound 0.01 µM): 72.2%
- viability, T/C [13]: 85.8%
- viability, T/C [14]: 81.4%
- viability, T/C [15]: 93.7%
- viability, T/C [16]: 102%
- viability, T/C (second compound 3.16 µM, first compound 0.00316 µM): 91%
- viability, T/C (second compound 3.16 µM, first compound 0.01 µM): 86.5%
- viability, T/C [17]: 77.3%
- viability, T/C [18]: 95.8%
- viability, T/C [19]: 111%
- viability, T/C [20]: 112%
- viability, T/C (second compound 10 µM, first compound 0.00316 µM): 120%
- viability, T/C (second compound 10 µM, first compound 0.01 µM): 100%
- viability, T/C [21]: 114%
- viability, T/C [22]: 91.6%
- viability, T/C [23]: 91.2%
- viability, T/C [24]: 101%
